Like-named read-outs stand apart in the source and are kept apart here.
Legend:
[1] = test system: A549 (lung adenocarcinoma); test: MTS cell viability assay, 72 h; assay type: cell-based; details: Table S2, read-out: Anti-proliferation IC50 A549
Excerpt: (§1) We then screened STR-V-53 and all the synthesized glycosylated HDACi for their effects on the viability of three cell lines: A549 (lung adenocarcinoma), Hep-G2 (HCC), and VERO (a normal kidney epithelial cell). We used SORA and STR-V-48, a previously disclosed nonglycosylated compound, as controls.[25] […] Additionally, compound STR-V-167, the peracetylated analog of STR-V-53, largely retained the Hep-G2 selectivity of STR-V-53 (Table S2). Subsequently, we evaluated the effects of STR-V-53 on cell proliferation using a panel of human HCC cell lines (Huh-7, SK-Hep-1, and Hep3B) as well as Kupffer cells (liver resident macrophages) by MTS assay. We observed that STR-V-53 is 7- to 16-fold more cytotoxic against these HCC cell lines relative to the Kupffer cells (Figure 1g). […] Based on their weak HDAC and cell proliferation inhibition activities, we de-emphasized further evaluation of the class III compounds.
(§2) 10-017-CV), supplemented with 10% fetal bovine serum (FBS) (Corning, 35-010-CV). Hep-G2 cells were cultured in phenol red-free Minimum Essential Medium (MEM) (Corning, 17-305-CV), supplemented with 10% fetal bovine serum (FBS). SK-Hep-1 in ATCC-formulated EMEM (ATCC® 30–2003™); Huh-7 in DMEM (containing 4 mM L-glutamine and 1 g/L glucose) with […]
(§3) Kupffer Cell Media (Sekisui XenoTech, LLC, Cat. #K8700). Cells were seeded into a 96-well plate (2000 counts/100uL) for 24 h prior to treatment and then treated with various drug concentrations for 72 h. All drugs were dissolved in media with DMSO concentration maintained at 1%. The effect of compounds on cell viability was measured using the MTS assay (CellTiter 96 Aqueous One Solution and CellTiter 96 Non-Radioactive Cell Proliferation Assays, Promega, Madison, WI) as described by the manufacturer. IC50s were determined using Prism GraphPad 8. […]

[2] = test system: VERO (a normal kidney epithelial cell); test: MTS cell viability assay, 72 h; assay type: cell-based; details: Table S2, read-out: Anti-proliferation IC50 VERO
Excerpt: as §1, §2, §3

Hep-G2 (HCC) = test: MTS cell viability assay, 72 h; assay type: cell-based, human; details: for IC50: Table S2, read-out: Anti-proliferation IC50 Hep-G2; for Hep-G2-selectivity (VERO/Hep-G2): ratio of VERO to Hep-G2 cytotoxicity
Excerpt: as §1, §2, §3

HDAC1 = HDAC1 (Homo sapiens, UniProt Q13547); test: HDAC isoform inhibition (BPS Bioscience); details: read-out: HDAC1 IC50; Table S1
HDAC1, sequence (Q13547 whole entry, canonical isoform): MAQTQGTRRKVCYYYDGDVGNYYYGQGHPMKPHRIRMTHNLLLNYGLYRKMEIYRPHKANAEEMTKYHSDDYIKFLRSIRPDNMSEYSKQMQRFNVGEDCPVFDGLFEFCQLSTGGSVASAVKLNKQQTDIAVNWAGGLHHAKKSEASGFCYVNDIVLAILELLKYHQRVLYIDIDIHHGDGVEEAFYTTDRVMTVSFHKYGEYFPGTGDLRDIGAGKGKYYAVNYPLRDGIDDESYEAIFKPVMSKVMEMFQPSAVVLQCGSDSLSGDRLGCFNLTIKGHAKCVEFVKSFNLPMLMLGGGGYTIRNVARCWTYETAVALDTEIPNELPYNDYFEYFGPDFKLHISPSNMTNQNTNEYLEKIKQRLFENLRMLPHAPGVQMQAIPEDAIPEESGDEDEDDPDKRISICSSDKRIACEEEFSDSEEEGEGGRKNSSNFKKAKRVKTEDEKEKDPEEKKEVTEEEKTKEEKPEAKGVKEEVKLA

HDAC2 = HDAC2 (Homo sapiens, UniProt Q92769); test: HDAC isoform inhibition (BPS Bioscience); details: read-out: HDAC2 IC50; Table S1
HDAC2, sequence (Q92769 whole entry, canonical isoform): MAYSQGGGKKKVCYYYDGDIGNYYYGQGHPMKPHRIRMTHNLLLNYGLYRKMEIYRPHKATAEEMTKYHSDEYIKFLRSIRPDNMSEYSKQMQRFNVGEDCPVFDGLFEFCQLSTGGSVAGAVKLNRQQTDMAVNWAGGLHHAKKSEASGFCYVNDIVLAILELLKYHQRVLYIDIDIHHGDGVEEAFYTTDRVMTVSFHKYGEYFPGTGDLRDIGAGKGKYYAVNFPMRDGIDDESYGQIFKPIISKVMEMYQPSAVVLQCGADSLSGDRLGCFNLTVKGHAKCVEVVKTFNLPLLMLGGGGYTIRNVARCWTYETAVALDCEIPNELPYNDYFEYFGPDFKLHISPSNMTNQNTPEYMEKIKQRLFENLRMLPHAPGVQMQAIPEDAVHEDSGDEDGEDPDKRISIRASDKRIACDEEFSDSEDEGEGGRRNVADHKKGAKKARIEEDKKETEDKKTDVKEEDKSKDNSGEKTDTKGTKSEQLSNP

HDAC6 = target: T1, HDAC6 (Homo sapiens, UniProt Q9UBN7); test: HDAC isoform inhibition (BPS Bioscience); details: read-out: HDAC6 IC50; Table S1
T1 sequence (Q9UBN7 1-1215): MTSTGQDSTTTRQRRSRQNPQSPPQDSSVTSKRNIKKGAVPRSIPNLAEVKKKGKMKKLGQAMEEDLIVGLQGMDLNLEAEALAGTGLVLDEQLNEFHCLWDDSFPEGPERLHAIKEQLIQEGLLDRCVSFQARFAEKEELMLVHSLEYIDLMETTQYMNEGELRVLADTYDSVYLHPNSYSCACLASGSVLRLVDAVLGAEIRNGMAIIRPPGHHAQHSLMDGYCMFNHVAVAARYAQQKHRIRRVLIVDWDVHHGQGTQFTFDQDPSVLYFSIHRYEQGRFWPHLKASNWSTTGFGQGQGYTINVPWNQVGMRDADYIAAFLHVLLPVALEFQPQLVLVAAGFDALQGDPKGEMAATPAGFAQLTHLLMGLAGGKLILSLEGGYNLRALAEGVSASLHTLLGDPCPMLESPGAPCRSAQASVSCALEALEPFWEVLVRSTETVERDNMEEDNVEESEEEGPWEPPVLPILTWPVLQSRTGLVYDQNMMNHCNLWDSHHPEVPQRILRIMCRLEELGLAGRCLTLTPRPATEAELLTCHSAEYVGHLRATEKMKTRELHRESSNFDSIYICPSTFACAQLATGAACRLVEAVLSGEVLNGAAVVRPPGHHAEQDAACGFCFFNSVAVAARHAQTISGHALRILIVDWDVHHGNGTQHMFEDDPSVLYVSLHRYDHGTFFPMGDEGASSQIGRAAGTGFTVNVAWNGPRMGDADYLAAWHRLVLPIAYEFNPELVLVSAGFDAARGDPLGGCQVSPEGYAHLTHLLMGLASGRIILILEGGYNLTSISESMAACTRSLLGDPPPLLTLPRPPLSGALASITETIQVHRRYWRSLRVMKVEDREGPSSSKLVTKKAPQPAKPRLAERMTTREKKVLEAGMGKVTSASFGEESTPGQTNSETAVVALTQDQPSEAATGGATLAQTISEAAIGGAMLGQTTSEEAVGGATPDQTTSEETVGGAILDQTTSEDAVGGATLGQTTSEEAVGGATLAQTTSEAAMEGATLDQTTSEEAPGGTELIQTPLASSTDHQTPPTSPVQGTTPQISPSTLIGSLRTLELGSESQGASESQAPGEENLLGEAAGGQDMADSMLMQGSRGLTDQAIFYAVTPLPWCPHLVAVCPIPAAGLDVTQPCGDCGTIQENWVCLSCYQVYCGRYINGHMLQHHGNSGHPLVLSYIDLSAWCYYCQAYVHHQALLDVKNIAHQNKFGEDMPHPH

HDAC8 = target: T2, HDAC8 (Homo sapiens, UniProt Q9BY41); test: HDAC isoform inhibition (BPS Bioscience); details: read-out: HDAC8 IC50; Table S1
T2 sequence (Q9BY41 1-377): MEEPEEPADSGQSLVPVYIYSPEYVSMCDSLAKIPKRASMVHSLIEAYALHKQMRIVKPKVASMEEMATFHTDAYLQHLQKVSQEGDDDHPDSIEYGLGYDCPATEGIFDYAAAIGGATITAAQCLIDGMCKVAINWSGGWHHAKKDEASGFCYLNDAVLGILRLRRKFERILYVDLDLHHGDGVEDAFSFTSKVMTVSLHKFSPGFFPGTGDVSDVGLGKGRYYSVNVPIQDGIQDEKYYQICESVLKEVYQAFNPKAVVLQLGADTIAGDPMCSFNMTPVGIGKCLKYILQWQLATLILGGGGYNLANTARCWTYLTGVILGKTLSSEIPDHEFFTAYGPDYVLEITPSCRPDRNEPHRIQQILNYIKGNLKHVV

HCC = test system: HCC; design: method as in PMID 22915658; details: HCC patients on belinostat treatment, NCT00321594; cited from earlier work

| SMILES | IC50 ([1]; Homo sapiens, A549) [nM] | IC50 ([2]; Chlorocebus sabaeus, Vero) [nM] | IC50 (Hep-G2 (HCC); Homo sapiens, HepG2) [nM] | Hep-G2-selectivity (VERO/Hep-G2) (Hep-G2 (HCC)) | IC50 [1] [nM] | IC50 [2] [nM] | IC50 (Hep-G2 (HCC)) [nM] | IC50 (HDAC1) [nM] | IC50 (HDAC2) [nM] | IC50 (HDAC6) [nM] | IC50 (HDAC8) [nM] | Median overall survival (OS) (HCC) [months] | Median progression-free survival (PFS) (HCC) [months] |
| --- | --- | --- | --- | --- | --- | --- | --- | --- | --- | --- | --- | --- | --- |
| CNC(=O)c1cc(Oc2ccc(NC(=O)Nc3ccc(Cl)c(C(F)(F)F)c3)cc2)ccn1 [SORA, sorafenib, reference compound] | 18100 ± 2900 | 12200 ± 100 | 3700 ± 400 | about three times more cytotoxic |  |  |  |  |  |  |  |  |  |
| O=C(CCCCCCn1cc(-c2ccc3cc(O[C@@H]4O[C@H](CO)[C@@H](O)[C@H](O)[C@H]4O)ccc3c2)nn1)NO [STR-II-36] |  |  |  |  | 20100 ± 1100 | 33600 ± 5500 | 7500 ± 800 | 3.28 | 10.4 | 0.72 | 319 |  |  |
| COc1ccc2cc(-c3cn(CCCCCCC(=O)NO)nn3)ccc2c1 [STR-V-48, N-hydroxy-7-(4-(6-methoxynaphthalen-2-yl)-1H-1,2,3-triazol-1-yl)heptanamide, reference compound] | 1400 ± 200 | 200 ± 50 | 400 ± 40 |  |  |  |  |  |  |  |  |  |  |
| CC(=O)O[C@H]1[C@H](Oc2ccc(-c3cn(CCCCCCC(=O)NO)nn3)cc2)O[C@H](C)C[C@@H]1N(C)C [STR-V-165] |  |  |  | 8 fold | 33700 ± 1800 | 76400 | 9600 ± 3400 | 10.3 | 27.5 | 5.22 | 806 |  |  |
| CC(=O)OCC1OC(Oc2ccc(-c3cn(CCCCCCC(=O)NO)nn3)cc2)C(OC(C)=O)C(OC(C)=O)C1OC(C)=O (stereo not shown) [STR-V-167] |  |  |  |  | > 100000 | > 100000 | 10100 ± 1200 | 31.8 | 66.4 | 2.61 | 311 |  |  |
| CC(=O)OCC1OC(Oc2ccc(-c3cn(CCCCCCC(=O)NO)nn3)cc2)C(OC(C)=O)C(OC(C)=O)C1OC(C)=O (stereo not shown) [STR-V-176] |  |  |  | 10 fold | 64700 ± 7000 | 77400 ± 5600 | 8000 ± 900 | 1.43 | 4.2 | 1.05 | 271 |  |  |
| CC(=O)OCC1OC(Oc2ccc3cc(-c4cn(CCCCCCC(=O)NO)nn4)ccc3c2)C(OC(C)=O)C(OC(C)=O)C1OC(C)=O (stereo not shown) [STR-V-177] |  |  |  |  | 39600 ± 600 | 19200 ± 900 | 7400 ± 900 | 2.2 | 13.2 | 1.65 | 718 |  |  |
| O=C(/C=C/c1cccc(S(=O)(=O)Nc2ccccc2)c1)NO [belinostat] |  |  |  |  |  |  |  |  |  |  |  | 6.60 | 2.64 |

From paper PMC11475281, “A Novel Liver Cancer-Selective Histone Deacetylase Inhibitor Is Effective against Hepatocellular Carcinoma and Induces Durable Responses with Immunotherapy” (ACS Pharmacology & Translational Science, 2024)
